# According to a melting point compilation (Tetko et al.; mined from patent text by program, amines drawn as free bases though some values may be those of a salt):
row,Structure (SMILES),melting point
1,COC(CN(C)CC1CSC2=C(O1)c1ccccc1C(=O)C2=O)OC (stereo unspecified),80 to 82 °C
2,Nc1ccc(CCC(=O)Nc2ccc(Cl)cc2Cl)cc1[N+](=O)[O-],164 to 165 °C
3,COC(=O)c1ccc(C(c2ccccc2)(c2ccccc2)c2ccccc2)cn1,160 to 164 °C
4,CCOC(=O)/C=C/c1ccc(-c2ccc(OCc3ccccc3)c(C34CC5CC(CC(C5)C3)C4)c2)c(Cl)c1,148 to 150 °C
5,Nc1cccnc1Cc1ccccc1,84 to 86 °C
6,O=C(CCCNC(=O)C(=O)c1cn2c3c(cccc13)CCC2)NOCc1ccccc1,88 to 90 °C
7,COCCc1nc2c(N)nc3ccccc3c2n1CCOCCS(C)(=O)=O,142 to 144 °C
8,CCCc1nn(CC)c2c(=S)[nH]c(-c3ccccc3OCC)nc12,130 to 131 °C
9,CN(C(=O)Nc1nc(OCC(F)(F)F)cc(OCC(F)(F)F)n1)c1ccc(OC(F)(F)F)cc1,100 to 102 °C
10,Cc1cc(-c2oncc2CCl)ccc1Cl,84 to 85 °C
11,CCCCCC(=O)OCc1nccc2[nH]c(=O)ccc12,158 to 159 °C
12,C#Cc1cccc(NC(C)=O)c1,94 to 96 °C
13,CC(C)c1nc2cc(NC(=O)c3c(C(=O)N4CCCC4)cnn3C)ccn2n1,141 to 143 °C
14,CS(=O)(=O)c1ccc2c(c1)C(=O)CC2,155 °C
15,COc1c(SC)ccc(C(=O)C(C#N)C(=O)C2CC2)c1Br (stereo unspecified),128 to 129 °C
16,CCCc1ccnc2c(=O)[nH]c(-c3cc(S(=O)(=O)NCCN4CCNC4=O)ccc3OCC)nc12,221 to 222 °C
17,Cc1cc(O)c(Oc2ccccc2C#N)cc1-n1cccc1,158 to 160 °C
18,C[C@H](NC(=O)OC(C)(C)C)C(=O)CCl,64 to 66.5 °C
19,CN1CCN(c2cccc3c2C[C@H](NC(=O)c2ccc(N4CCCCC4)cc2)CO3)CC1,178 to 180 °C
20,O=C(O)CCCCCCCc1nc(-c2ccccc2)c(-c2ccccc2)o1,82 to 83 °C
21,CCC(C)N(C)C(=O)c1cc(-c2ccccc2Cl)c2sccc2c1 (stereo unspecified),98 °C
22,COc1ccc(OC)c(Cc2cccc(N)c2)c1,81 to 84 °C
23,CN(C)CCCNS(=O)(=O)c1cccc([N+](=O)[O-])c1,84 to 87 °C
24,O=C(OC(c1ccccc1)c1ccccc1)C1=CCC2CC(=O)C12 (stereo unspecified),115 to 116 °C
25,COc1ccc2cccc(C(=O)C(N)=O)c2c1,112 °C
26,CC(C)(C)c1nc2cc(N3CCCCC3)c(NC(N)=S)cc2s1,228 to 232 °C

row,Structure (SMILES),melting point
1,CC(=O)Nc1ccc(F)c(F)c1F,87 to 88 °C
2,OC(CCl)(Cc1ccccc1)c1ccc(-c2ccccc2)cc1 (stereo unspecified),96 °C
3,O=c1ccc(S(=O)(=O)c2oc3ccc(Cl)cc3c2-c2ccccc2)n[nH]1,> 240 °C
4,CC1CON2C(=O)c3cc(Cl)ccc3OC2C1 (stereo unspecified),121 to 140 °C
5,CC1COc2c(F)c(F)c(N)c3c(=O)[nH]c(=O)n1c23 (stereo unspecified),> 280 °C
6,CC(C)N1CC2CC(C1)CN(S(=O)(=O)c1ccccc1)C2,85.5 to 86.5 °C
7,CC(OCc1ccc(-c2ccc(Cl)cc2)cc1)(C(=O)O)C(F)(F)F (stereo unspecified),135 to 136 °C
8,CCOCCc1c(-c2ccccc2)nc(Br)n2ncnc12,159 to 160 °C
9,O=C1NCCN(Cc2cc(=O)c(OCc3ccccc3)cn2Cc2ccccc2)C1=O,260 to 265 °C
10,CC(=O)N1CCC(c2ccc3c(c2OCc2ccccc2)CCCC3)CC1,108 to 110 °C
11,COC(=O)COc1ccc(NC(=O)COCc2ccccc2)cc1,76 to 77.5 °C
12,CCOc1ccccc1NC=C1C(=O)N(c2ccc(S(=O)(=O)N(CC)CC)cc2)N=C1C,170 °C
13,CCOc1ccccc1NC(=O)C1Sc2ccc(Cl)cc2N(C)C1=O (stereo unspecified),124 to 126 °C
14,CC1=C(c2ccccc2)C(=O)N(C(C)(C)C(=O)Nc2cccc(Cl)c2)CO1,114 °C
15,COc1ccc2onc(Nc3ccncc3)c2c1,248 to 251 °C
16,CCONC(=O)c1nc(-c2ccc(Cl)c(OC)c2F)cc(N)c1Cl,192 to 195 °C
17,Cc1nc(-c2cc(C)c(OCCCc3cc(C4CC4)no3)c(C)c2)no1,50.5 to 51 °C
18,COc1cc(C(C)=O)ccc1OCCCN1CCC(c2noc3cc(F)ccc23)CC1,118 to 120 °C
19,CONC(=O)Nc1ccc(-c2sc3c(c2CCl)c(=O)n(-c2ccc4c(c2)OCCO4)c(=O)n3Cc2c(F)cccc2F)cc1,204 to 209 °C
20,C#CCOc1c(CO)ccc2ccccc12,65 to 68 °C
21,COc1cc2c(cc1OC)CC(=O)N(Cc1ccccc1)CC2,141 to 142 °C
22,Oc1cc(-c2ccc(Cl)cc2F)n[nH]1,194 °C
23,COC(=O)C(C)=CNC(=O)Nc1cc(C(=O)OC(C)C)c(Cl)cc1F,189 to 190 °C
24,CCOC(=O)NCCS(=O)CC(=O)NCC=CCOc1cccc(CN2CCCCC2)c1 (stereo unspecified),64.7 to 66.1 °C
25,COc1cc(C(=O)O)ccc1Cc1c[nH]c2ccc(NC(=O)CC3CCCC3)cc12,218 to 219 °C
